Laboratory results reported in patent US20250249110A1, “ANTIMICROBIAL PEPTIDE DERIVATIVE AND USE THEREOF” (SICHUAN UNIVERSITY, priority 2016, published 2025).
Where a SMILES comes first, the peptide text is derived from it. The star is where a group is joined. Succinyl(4-O-cholesteryl) = CC(C)CCC[C@@H](C)[C@H]1CC[C@H]2[C@@H]3CC=C4C[C@@H](OC(=O)CCC(=O)*)CC[C@]4(C)[C@H]3CC[C@]12C

Assays:
[1] = tested on: DC cells; assay: Uptake of OVA antigen by dendritic cells (flow cytometry); type: cell-based, mouse; settings: 3 h
Experimental: DC cells are the most powerful antigen presenting cells in the body, which can absorb foreign substances, process and present them to T cells to stimulate immune response. DC cells play an important role in T cell immune response and production of T cell dependent antibody. We examined the effect of DP7-C on DC presenting antigen by flow cytometry.
The experimental steps are as follows: • (1) Isolate C57/BL mouse primary bone marrow cells and incubate in the induced medium containing 10 ng/ml of GM-CSF and 10 ng/ml of IL-4 for 5 days. • (2) Add the OVA protein markers FITC, OVA or DP7-C/OVA into DC cell culture, mix well and incubate for 3 h. • (3) Collect the stimulated DC cells, wash with PBS twice, re-suspend the cells in 300 μL of PBS, and perform flow cytometry.

[2] = Morphology under transmission electron microscopy; type: physicochemical; settings: TEM
Experimental: As the DP7 is positively charged, the DP7-C micelle formed by self-assembly is also positively charged in aqueous solution, showing its potential as a non-viral gene transmission vector, especially siRNA transmission vector. The morphology of DP7-C micelles formed by self-assembly and DP7-C/siRNA complexes is observed under a transmission electron microscopy (H-6009IV, Hitachi, Japan). First, 1 mg\mL of micellar solution is diluted with distilled water and coated on a copper mesh, covered with nitrocellulose, then negatively stained with phosphotungstic acid, dried at room temperature and observed under an electron microscope. […] Under the electron microscope, the particle size of DP7-C micelles is about 60 nm, and the particle size of DP7-C micelle/siRNA complex is about 100 nm (see FIGS. 14A and 14B for the results).

[3] = tested on: B16 metastatic melanoma in the lung; assay: B16 mouse model of metastatic melanoma in the lung; type: in vivo
Experimental: In order to further characterize the application potential of DP7-C micelles in tumor therapy, we established a B16 mouse model of metastatic melanoma in the lung and used DP7-C to transmit anti-VEGF siRNA therapeutic genes for therapeutic research. • (1) On day 0, female C57 mice aged 6-8 weeks are […] inoculated with 0.1 mL of cell suspension (containing about 2.5×10^5 B16 cells). • (2) On day 3, mice are randomly divided into 4 groups, 8 mice for each group, and are labeled. • (3) Mice are injected with 7 doses of normal saline (blank control group), blank DP7-C micelle (60 μg), DP7-C/no-sense control siRNA complex (60 μg/12 μg) or DP7-C/VEGF siRNA complex (60 μg/12 μg) respectively through tail veins. • (4) On day 20, when the mice in the control group are already very weak, all the mice are killed by cervical dislocation; the tumor tissues in the lung as well as the heart, liver, spleen, lung and kidney tissues are immediately collected, weighed and analyzed. The collected heart, liver, spleen, lung and kidney tissues are analyzed by HE staining.

[4] = tested on: macrophages, neutrophils and monocytes in the abdominal cavity; assay: Detection of activated immune-related cells in abdominal cavity (flow cytometry); type: in vivo, mouse; settings: 24 h after 200 μL of 1 mg/mL i.p.
Experimental: Grouping: The mice are randomly divided into two groups (NS group and DP7-C group) with 5 mice in each group.
Each mouse in the DP7-C group is given 200 μL of 1 mg/mL DP7-C, while each mouse in the NS group is injected with 200 μL of normal saline. The mice of both groups are killed 24 h later. Each mouse is intraperitoneally injected with 5 mL of normal saline. By gently massaging the abdomen, the ascites in the abdominal cavity is aspirated to calculate the cell concentration and total cell count there. The lymphocyte typing of the ascites is detected by a flow cytometry, the percentage of macrophages, neutrophils and inflammatory monocytes in total cells is analyzed, and the number of macrophages, neutrophils and inflammatory monocytes is calculated according to the results of flow cytometry and the total number of cells in ascites.

[5] = tail vein injection, 7 doses, day 20

**Q.** Which results are given for `CC[C@H](C)[C@H](NC(=O)[C@H](CCCNC(=N)N)NC(=O)[C@H](Cc1c[nH]c2ccccc12)NC(=O)[C@H](CCC(N)=O)NC(=O)[C@@H](NC(=O)CCC(=O)O[C@H]1CC[C@@]2(C)C(=CC[C@H]3[C@@H]4CC[C@H]([C@H](C)CCCC(C)C)[C@@]4(C)CC[C@@H]32)C1)C(C)C)C(=O)N[C@@H](CCCNC(=N)N)C(=O)N[C@H](C(=O)N[C@@H](C)C(=O)N[C@H](C(=O)N[C@H](C(=O)N[C@@H](CCCNC(=N)N)C(=O)N[C@@H](CCCCN)C(N)=O)[C@@H](C)CC)C(C)C)C(C)C` [DP7-C, Chol-suc-VQWRIRVAVIRK-NH2] ({Succinyl(4-O-cholesteryl)}-VQWRIRVAVIRK-NH2)?
**A.** uptake of antigen by DC cells ([1]; 2.5 μg/ml): significantly increase; uptake of OVA by DC cells ([1]; 40 μg/ml): slightly enhanced; particle size under the electron microscope [2]: about 60 nm; HE staining of major organ tissues ([3]; heart, liver, spleen, kidney): no significant pathological changes; average number of tumor nodes [3, 5]: 132±22; average weight of lung tissue [3, 5]: 0.41 ± 0.1 g; total number of cells in the abdominal cavity [4]: increased significantly; percentage of monocytes ([4]; abdominal cavity, NS 2.7%): 32.8%; percentage of macrophages ([4]; abdominal cavity, NS 38.8%): 50.8%
